# Assay results reported in US10570129B2 (Zoetis Services LLC, priority 2015, dated 2020).
# Columns and labels:
# D. immitis microfilariae = assay: Dirofilaria immitis, microfilariae (DiMF) in vitro motility assay; format: cell-based; conditions: Dirofilaria immitis, 72 h, read-out: DiMF minimally effective dose (MEC)
# Haemonchus contortus L3 = assay: microbe, parasite or virus in culture; format: cell-based; conditions: Haemonchus contortus, 96 h, read-out: HcL3 Minimal Effective Concentration (MEC)
# [1] = system: Trichostrongylus colubriformis; assay: Jird efficacy model; format: in vivo; conditions: Trichostrongylus colubriformis, sc, 96 h, read-out: Jird % (percentage efficacy)
Structure (SMILES),minimal effective concentration (D. immitis microfilariae),minimal effective concentration (Haemonchus contortus L3),inhibition in vivo at 10 mg/kg [1]
"O=C(NCc1ccnc(Cl)c1)n1c2c(c3cc(N4CCOCC4)ccc31)CN(C/C=C/c1ccc(Cl)cc1)CC2 [Example 505, (E)-2-(3-(4-chlorophenyl)allyl)-N-((2-chloropyridin-4-yl)methyl)-8-morpholino-1,2,3,4-tetrahydro-5H-pyrido[4,3-b]indole-5-carboxamide]",13.5 µM,10 µM,100%
"O=C(NCc1ccnc(Cl)c1)n1c2c(c3ccc(OC(F)(F)F)cc31)CN(C/C=C/c1ccc(F)c(F)c1)CC2 [Example 349, (E)-N-((2-chloropyridin-4-yl)methyl)-2-(3-(3,4-difluorophenyl)allyl)-7-(trifluoromethoxy)-1,2,3,4-tetrahydro-5H-pyrido[4,3-b]indole-5-carboxamide]",10 µM,1 µM,99%
"N#Cc1ccc2c(c1)c1c(n2C(=O)NCc2ccnc(F)c2)CCN(C/C=C/c2cc(F)c(Cl)c(F)c2)C1 [Example 99, (E)-2-(3-(4-chloro-3,5-difluorophenyl)allyl)-8-cyano-N-((2-fluoropyridin-4-yl)methyl)-1,2,3,4-tetrahydro-5H-pyrido[4,3-b]indole-5-carboxamide]",10 µM,0.1 µM,100%
"O=C(NCc1ccnc(Cl)c1)n1c2c(c3cc4c(cc31)COC4)CN(C/C=C/c1ccc(F)cc1)CC2 [Example 481, (E)-N-((2-chloropyridin-4-yl)methyl)-8-(3-(4-fluorophenyl)allyl)-1,3,6,7,8,9-hexahydro-5H-furo[3,4-f]pyrido[4,3-b]indole-5-carboxamide]",3.3 µM,0.3 µM,99%
"O=C(NCc1ccnc(F)c1)n1c2c(c3cc(F)c(Cl)cc31)CN(C/C=C/c1ccc(Cl)cc1)CC2 [Example 317, (E)-7-chloro-2-(3-(4-chlorophenyl)allyl)-8-fluoro-N-((2-fluoropyridin-4-yl)methyl)-1,2,3,4-tetrahydro-5H-pyrido[4,3-b]indole-5-carboxamide]",18.2 µM,1 µM,100%
"O=C(NCc1ccnc(F)c1)n1c2c(c3ccc(C(F)(F)F)cc31)CN(C/C=C/c1ccc(Cl)cc1)CC2 [Example 165, (E)-2-(3-(4-chlorophenyl)allyl)-N-((2-fluoropyridin-4-yl)methyl)-7-(trifluoromethyl)-1,2,3,4-tetrahydro-5H-pyrido[4,3-b]indole-5-carboxamide]",3.3 µM,3.3 µM,100%
"N#Cc1ccc(/C=C/CN2CCc3c(c4c(F)cc(C(F)(F)F)cc4n3C(=O)NCc3ccnc(Cl)c3)C2)cc1 [Example 321, (E)-N-((2-chloropyridin-4-yl)methyl)-2-(3-(4-cyanophenyl)allyl)-9-fluoro-7-(trifluoromethyl)-1,2,3,4-tetrahydro-5H-pyrido[4,3-b]indole-5-carboxamide]",5.7 µM,2.4 µM,100%
"O=C(NCc1ccnc(Cl)c1)n1c2c(c3ccc(Cl)cc31)CN(C/C=C/c1ccc(F)c(F)c1)CC2 [Example 211, (E)-7-chloro-N-((2-chloropyridin-4-yl)methyl)-2-(3-(3,4-difluorophenyl)allyl)-1,2,3,4-tetrahydro-5H-pyrido[4,3-b]indole-5-carboxamide]",10 µM,1 µM,100%
"O=C(NCc1ccnc(Cl)c1)n1c2c(c3cc(Cl)c(Cl)cc31)CN(C/C=C/c1ccc(F)cc1)CC2 [Example 282, (E)-7,8-dichloro-N-((2-chloropyridin-4-yl)methyl)-2-(3-(4-fluorophenyl)allyl)-1,2,3,4-tetrahydro-5H-pyrido[4,3-b]indole-5-carboxamide]",3.3 µM,0.3 µM,100%
"N#Cc1cc(/C=C/CN2CCc3c(c4ccc(OC(F)(F)F)cc4n3C(=O)NCc3ccnc(Cl)c3)C2)ccc1F [Example 344, (E)-N-((2-chloropyridin-4-yl)methyl)-2-(3-(3-cyano-4-fluorophenyl)allyl)-7-(trifluoromethoxy)-1,2,3,4-tetrahydro-5H-pyrido[4,3-b]indole-5-carboxamide]",10 µM,0.5 µM,100%
"O=C(NCc1ccnc(F)c1)n1c2c(c3cc4c(cc31)COC4)CN(C/C=C/c1ccc(Cl)cc1)CC2 [Example 483, (E)-8-(3-(4-chlorophenyl)allyl)-N-((2-fluoropyridin-4-yl)methyl)-1,3,6,7,8,9-hexahydro-5H-furo[3,4-f]pyrido[4,3-b]indole-5-carboxamide]",3.3 µM,0.5 µM,100%
"N#Cc1ccc2c(c1)c1c(n2C(=O)NCc2ccnc(Cl)c2)CCN(C/C=C/c2ccc(F)cc2F)C1 [Example 88, (E)-N-((2-chloropyridin-4-yl)methyl)-8-cyano-2-(3-(2,4-difluorophenyl)allyl)-1,2,3,4-tetrahydro-5H-pyrido[4,3-b]indole-5-carboxamide]",3.3 µM,0.1 µM,99%
"N#Cc1ccc2c3c(n(C(=O)NCc4ccnc(Cl)c4)c2c1)CCN(C/C=C/c1ccc(Cl)cc1F)C3 [Example 7, (E)-2-(3-(4-chloro-2-fluorophenyl)allyl)-N-((2-chloropyridin-4-yl)methyl)-7-cyano-1,2,3,4-tetrahydro-5H-pyrido[4,3-b]indole-5-carboxamide]",10 µM,2.4 µM,100%
"N#Cc1ccc2c(c1)c1c(n2C(=O)NCc2ccnc(F)c2)CCN(C/C=C/c2ccc(F)cc2)C1 [Example 123, (E)-8-cyano-2-(3-(4-fluorophenyl)allyl)-N-((2-fluoropyridin-4-yl)methyl)-1,2,3,4-tetrahydro-5H-pyrido[4,3-b]indole-5-carboxamide]",10 µM,0.3 µM,100%
"O=C(NCc1ccnc(Cl)c1)n1c2c(c3cc(Br)ccc31)CN(C/C=C/c1ccc(Cl)cc1)CC2 [Example 185, (E)-8-bromo-2-(3-(4-chlorophenyl)allyl)-N-((2-chloropyridin-4-yl)methyl)-1,2,3,4-tetrahydro-5H-pyrido[4,3-b]indole-5-carboxamide]",7.7 µM,0.7 µM,100%
"O=C(NCc1ccnc(Cl)c1)n1c2c(c3ccc(C(F)(F)F)cc31)CN(C/C=C/c1ccc(Cl)cc1)CC2 [Example 156, (E)-2-(3-(4-chlorophenyl)allyl)-N-((2-chloropyridin-4-yl)methyl)-7-(trifluoromethyl)-1,2,3,4-tetrahydro-5H-pyrido[4,3-b]indole-5-carboxamide]",33 µM,0.5 µM,99%
